Target: T1, human chemokine receptor 2 isoform B (Homo sapiens, UniProt P41597)
T1 construct: host or cells: CHOK1-CCR2B-A5 (CHO-K1)
T1 sequence (P41597 1-360 isoform P41597-2): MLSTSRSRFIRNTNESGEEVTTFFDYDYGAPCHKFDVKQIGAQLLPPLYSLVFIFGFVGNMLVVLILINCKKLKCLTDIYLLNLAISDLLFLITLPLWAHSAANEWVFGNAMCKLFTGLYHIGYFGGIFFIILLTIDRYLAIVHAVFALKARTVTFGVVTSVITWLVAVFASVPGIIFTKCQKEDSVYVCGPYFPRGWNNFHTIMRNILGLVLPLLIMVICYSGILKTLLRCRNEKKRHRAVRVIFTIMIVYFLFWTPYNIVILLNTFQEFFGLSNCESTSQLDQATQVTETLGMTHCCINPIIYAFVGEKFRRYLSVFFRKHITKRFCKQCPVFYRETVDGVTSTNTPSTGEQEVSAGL
Assay: Calcium mobilization assay (FLIPR, CHOK1-CCR2B-A5 cells, 20 nM MCP-1)
Assay type: cell-based
Details: Ca mobilisation assay, CCR2, antagonist activity vs 20 nM MCP-1
How it was run: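 Antagonism read as IC50 against 20 nM MCP-1-evoked calcium rise (peak minus baseline Fluo-4 signal, FLIPR) in CCR2B-overexpressing CHO-K1 cells. Compounds were preincubated 20-30 min at 30 °C, with agonist activity recorded for 80 s on addition.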

Row | SMILES | IC50
1 | Cc1nc(C2CCN(CCCN3CCN(C(=O)/C=C/c4ccc(Cl)c(Cl)c4)CCC3=O)CC2)n[nH]1 [Example 58, 1-[(E)-3-(3,4-Dichloro-phenyl)-acryloyl]-4-{3-[4-(5-methyl-1H-[1,2,4]triazol-3-yl)-piperidin-1-yl]-propyl}-[1,4]diazepan-5-one] | 546 nM
2 | N#CC1(c2ccccc2)CCN(CCCN2CCN(C(=O)/C=C/c3ccc(Cl)c(Cl)c3)CCC2=O)CC1 [Example 60, 1-(-3-{4-[(E)-3-(3,4-Dichloro-phenyl)-acryloyl]-7-oxo-[1,4]diazepan-1-yl}-propyl)-4-phenyl-piperidine-4-carbonitrile] | 23 nM
3 | O=C(/C=C/c1ccc(Cl)c(Cl)c1)N1CCC(=O)N(CCCNC2CCOCC2)CC1 [Example 63, 1-[(E)-3-(3,4-Dichloro-phenyl)-acryloyl]-4-[3-(tetrahydro-pyran-4-ylamino)-propyl]-[1,4]diazepan-5-one] | 503 nM
4 | O=C(C=Cc1ccc(Cl)c(Cl)c1)N1CCC(=O)N(CCCNC2CCC(O)(c3ccccn3)CC2)CC1 (stereo not drawn) [Example 65, trans-1-[(E)-3-(3,4-Dichloro-phenyl)-acryloyl]-4-[3-(4-hydroxy-4-pyridin-2-yl-cyclohexylamino)-propyl]-[1,4]diazepan-5-one] | 197 nM
5 | O=C(/C=C/c1ccc(Cl)c(Cl)c1)N1CCC(=O)N(CCCN2CCC(O)(c3ccccn3)CC2)CC1 [Example 69, 1-[(E)-3-(3,4-Dichloro-phenyl)-acryloyl]-4-[3-(4′-hydroxy-3′,4′,5′,6′-tetrahydro-2′H-[2,4′]bipyridinyl-1′-yl)-propyl]-[1,4]diazepan-5-one] | 185 nM
6 | O=C(/C=C/c1ccc(Cl)c(Cl)c1)N1CCC(=O)N(CCCN2CCC(O)(c3cccnc3)CC2)CC1 [Example 70, 1-[(E)-3-(3,4-Dichloro-phenyl)-acryloyl]-4-[3-(4′-hydroxy-3′,4′,5′,6′-tetrahydro-2′H-[3,4′]bipyridinyl-1′-yl)-propyl]-[1,4]diazepan-5-one] | 146 nM
7 | O=C(/C=C/c1ccc(Cl)c(Cl)c1)N1CCC(=O)N(CCCN2CCC(C(F)(F)F)CC2)CC1 [Example 72, 1-[(E)-3-(3,4-Dichloro-phenyl)-acryloyl]-4-[3-(4-trifluoromethyl-piperidin-1-yl)-propyl]-[1,4]diazepan-5-one] | 312 nM
8 | O=C(/C=C/c1ccc(Cl)c(Cl)c1)N1CCC(=O)N(CCCN2CCC(F)CC2)CC1 [Example 74, 1-[(E)-3-(3,4-Dichloro-phenyl)-acryloyl]-4-[3-(4-fluoro-piperidin-1-yl)-propyl]-[1,4]diazepan-5-one] | 175 nM
9 | CN(CCCN1CCN(C(=O)/C=C/c2ccc(Cl)c(Cl)c2)CCC1=O)C1CCOCC1 [Example 78, 1-[(E)-3-(3,4-Dichloro-phenyl)-acryloyl]-4-{3-[methyl-(tetrahydro-pyran-4-yl)-amino]-propyl}-[1,4]diazepan-5-one] | 444 nM
10 | COC1CCN(CCCN2CCN(C(=O)/C=C/c3ccc(Cl)c(Cl)c3)CCC2=O)CC1 [Example 79, 1-[(E)-3-(3,4-Dichloro-phenyl)-acryloyl]-4-[3-(4-methoxy-piperidin-1-yl)-propyl]-[1,4]diazepan-5-one] | 706 nM
11 | CCOC(=O)NC1CCN(CCCN2CCN(C(=O)/C=C/c3ccc(Cl)c(Cl)c3)CCC2=O)CC1 [Example 82, [1-(3-{4-[(E)-3-(3,4-Dichloro-phenyl)-acryloyl]-7-oxo-[1,4]diazepan-1-yl}-propyl)-piperidin-4-yl]-carbamic acid ethyl ester] | 297 nM
12 | O=C1NCC2(CCN(CCCN3CCN(C(=O)/C=C/c4ccc(Cl)c(Cl)c4)CCC3=O)CC2)O1 [Example 84, 8-(3-{4-[(E)-3-(3,4-Dichloro-phenyl)-acryloyl]-7-oxo-[1,4]diazepan-1-yl}-propyl)-1-oxa-3,8-diaza-spiro[4.5]decan-2-one] | 223 nM
13 | O=C(/C=C/c1ccc(Cl)c(Cl)c1)N1CCC(=O)N(CCCN2CCC(O)(c3ncco3)CC2)CC1 [Example 85, 1-[(E)-3-(3,4-Dichloro-phenyl)-acryloyl]-4-[3-(4-hydroxy-4-oxazol-2-yl-piperidin-1-yl)-propyl]-[1,4]diazepan-5-one] | 1170 nM
14 | CNC(=O)C1CCN(CCCN2CCN(C(=O)/C=C/c3ccc(Cl)c(Cl)c3)CCC2=O)CC1 [Example 86, 1-(3-{4-[(E)-3-(3,4-Dichloro-phenyl)-acryloyl]-7-oxo-[1,4]diazepan-1-yl}-propyl)-piperidine-4-carboxylic acid methylamide] | 1080 nM
15 | O=C1CC2(CCN(CCCN3CCN(C(=O)/C=C/c4ccc(Cl)c(Cl)c4)CCC3=O)CC2)C(=O)N1 [Example 87, 8-(3-{4-[(E)-3-(3,4-Dichloro-phenyl)-acryloyl]-7-oxo-[1,4]diazepan-1-yl}-propyl)-2,8-diaza-spiro[4.5]decane-1,3-dione] | 315 nM
16 | O=C1CC2(CCN(CCCN3CCN(C(=O)/C=C/c4ccc(Cl)c(Cl)c4)CCC3=O)CC2)CN1 [Example 88, 8-(3-{4-[(E)-3-(3,4-Dichloro-phenyl)-acryloyl]-7-oxo-[1,4]diazepan-1-yl}-propyl)-2,8-diaza-spiro[4.5]decan-3-one] | 757 nM
17 | O=C(/C=C/c1ccc(Cl)c(Cl)c1)N1CCC(=O)N(CCCN2CCC[C@@H](O)C2)CC1 [Example 91, (R)-1-[(E)-3-(3,4-Dichloro-phenyl)-acryloyl]-4-[3-(3-hydroxy-piperidin-1-yl)-propyl]-[1,4]diazepan-5-one] | 148 nM
18 | O=C(/C=C/c1ccc(Cl)c(Cl)c1)N1CCC(=O)N(CCCN2CCC[C@H](O)C2)CC1 [Example 92, (S)-1-[(E)-3-(3,4-Dichloro-phenyl)-acryloyl]-4-[3-(3-hydroxy-piperidin-1-yl)-propyl]-[1,4]diazepan-5-one] | 189 nM
19 | O=C(/C=C/c1ccc(Cl)c(Cl)c1)N1CCC(=O)N(CCN2CCC(O)(c3ccccc3)CC2)CC1 [Example 96, 1-[(E)-3-(3,4-Dichloro-phenyl)-acryloyl]-4-[3-(4-hydroxy-4-phenyl-piperidin-1-yl)-ethyl]-[1,4]diazepan-5-one] | 1140 nM
20 | O=C(/C=C/c1ccc(Cl)c(Cl)c1)N1CCC(=O)N(CCN2CCC(O)(c3cccnc3)CC2)CC1 [Example 99, 1-[(E)-3-(3,4-Dichloro-phenyl)-acryloyl]-4-[3-(4′-hydroxy-3′,4′,5′,6′-tetrahydro-2′H-[3,4′]bipyridinyl-1′-yl)-ethyl]-[1,4]diazepan-5-one] | 1220 nM
21 | N#CC1(c2ccccc2)CCN(CCN2CCN(C(=O)/C=C/c3ccc(Cl)c(Cl)c3)CCC2=O)CC1 [Example 101, 1-(-3-{4-[(E)-3-(3,4-Dichloro-phenyl)-acryloyl]-7-oxo-[1,4]diazepan-1-yl}-ethyl)-4-phenyl-piperidine-4-carbonitrile] | 1230 nM
22 | O=C(/C=C/c1ccc(Cl)c(Cl)c1)N1CCC(=O)N(CCNC2CCOCC2)CC1 [Example 103, 1-[(E)-3-(3,4-Dichloro-phenyl)-acryloyl]-4-[3-(tetrahydro-pyran-4-ylamino)-ethyl]-[1,4]diazepan-5-one] | 388 nM
23 | O=C(C=Cc1ccc(Cl)c(Cl)c1)N1CCC(=O)N(CCNC2CCC(O)(c3ccccn3)CC2)CC1 (stereo not drawn) [Example 105, trans-1-[(E)-3-(3,4-Dichloro-phenyl)-acryloyl]-4-[3-(4-hydroxy-4-pyridin-2-yl-cyclohexylamino)-ethyl]-[1,4]diazepan-5-one] | 806 nM
24 | O=C(/C=C/c1ccc(Cl)c(Cl)c1)N1CCC(=O)N(CCN[C@H]2CC[C@H](O)CC2)CC1 [Example 106, trans-1-[(E)-3-(3,4-Dichloro-phenyl)-acryloyl]-4-[2-(4-hydroxy-cyclohexylamino)-ethyl]-[1,4]diazepan-5-one] | 523 nM
25 | O=C(/C=C/c1ccc(Cl)c(Cl)c1)N1CCC(=O)N(CCNC2CCCC2)CC1 [Example 108, 4-[3-(Cyclopentyl-amino)-ethyl]-1-[(E)-3-(3,4-dichloro-phenyl)-acryloyl]-[1,4]diazepan-5-one] | 1200 nM
26 | CN(CCN1CCN(C(=O)/C=C/c2ccc(Cl)c(Cl)c2)CCC1=O)C1CCCC1 [Example 109, 4-[-3-(Cyclopentyl-methyl-amino)-ethyl]-1-[(E)-3-(3,4-dichloro-phenyl)-acryloyl]-[1,4]diazepan-5-one] | 521 nM
27 | O=C(/C=C/c1ccc(Cl)c(Cl)c1)N1CCC(=O)N(CCN2CCC[C@H]2CO)CC1 [Example 117, (S)-1-[(E)-3-(3,4-Dichloro-phenyl)-acryloyl]-4-[3-(2-hydroxymethyl-pyrrolidin-1-yl)-ethyl]-[1,4]diazepan-5-one] | 459 nM
28 | CC1CCN(CCN2CCN(C(=O)/C=C/c3ccc(Cl)c(Cl)c3)CCC2=O)CC1 [Example 120, 1-[(E)-3-(3,4-Dichloro-phenyl)-acryloyl]-4-[3-(4-methyl-piperidin-1-yl)-ethyl]-[1,4]diazepan-5-one] | 1140 nM
29 | CN(CCN1CCN(C(=O)/C=C/c2ccc(Cl)c(Cl)c2)CCC1=O)C1CCOCC1 [Example 134, 1-[(E)-3-(3,4-Dichloro-phenyl)-acryloyl]-4-{3-[methyl-(tetrahydro-pyran-4-yl)-amino]-ethyl}-[1,4]diazepan-5-one] | 600 nM
30 | CC(C)N1CCC(NCCN2CCN(C(=O)/C=C/c3ccc(Cl)c(Cl)c3)CCC2=O)CC1 [Example 136, 1-[(E)-3-(3,4-Dichloro-phenyl)-acryloyl]-4-[2-(1-isopropyl-piperidin-4-ylamino)-ethyl]-[1,4]diazepan-5-one] | 688 nM
